These results are taken from ChEMBL document CHEMBL1212936, “Discovery of 2-[1-(4-chlorophenyl)cyclopropyl]-3-hydroxy-8-(trifluoromethyl)quinoline-4-carboxylic acid (PSI-421), a P-selectin inhibitor with improved pharmacokinetic properties and oral efficacy in models of vascular injury” (J Med Chem, 2010).

Series [1] is described as follows: Aqueous solubility of the compound at pH 7.4. It is filed as physicochemical. As to conditions: buffer.
A short description of series [2]: Clearance in C57B6 mouse at 2 mg/kg, iv and 10 mg/kg, po. The format is ADME, organism-based. As to conditions: in vivo.
The nature of series [3]: Oral bioavailability in Sprague-Dawley rat at 10 mg/kg. As to conditions: in vivo. It is filed as ADME, organism-based.
The nature of series [4]: Half life in cynomolgus monkey liver microsomes. The format is ADME, Macaca fascicularis, Microsome.
The nature of series [5]: Half life in Beagle dog liver microsomes. It is filed as ADME, Canis lupus familiaris, Microsome. (Liver microsomes are a subcellular fraction often used to study metabolism.)
Series [6] is described as follows: Clearance in Beagle dog at 2 mg/kg, iv and 10 mg/kg, po. The settings on record: in vivo. The format is ADME, organism-based, Canis lupus familiaris.
Series [7] can be described thus: Aqueous solubility of the compound at pH 9. The format is physicochemical. As to conditions: buffer.
In series [8] the test system is Canis familiaris. The series can be described thus: Dose normalized AUC in Beagle dog measured per mg of plasma at 2 mg/kg, iv and 10 mg/kg, po. It is filed as ADME, organism-based, Canis lupus familiaris. The settings on record: in vivo.
Series [9] can be described thus: Oral bioavailability in Beagle dog at 10 mg/kg. It is filed as ADME, organism-based, Canis lupus familiaris. The settings on record: in vivo.
The nature of series [10]: Half life in human liver microsomes. The format is ADME, Microsome.
Series [11] can be described thus: Half life in Sprague-Dawley rat liver microsomes. The format is ADME, Microsome.
For series [12], the system named is Rattus norvegicus. The series can be described thus: Dose normalized AUC in Sprague-Dawley rat measured per mg of plasma at 3 mg/kg, iv and 10 mg/kg, po. As to conditions: in vivo. It is filed as ADME, organism-based.
Series [13] in a line: Oral bioavailability in C57B6 mouse at 10 mg/kg. It is filed as ADME, organism-based. As to conditions: in vivo.
For series [14], the target named is T1, P-selectin glycoprotein ligand 1 (Homo sapiens, UniProt Q14242).
T1 sequence (Q14242 whole entry): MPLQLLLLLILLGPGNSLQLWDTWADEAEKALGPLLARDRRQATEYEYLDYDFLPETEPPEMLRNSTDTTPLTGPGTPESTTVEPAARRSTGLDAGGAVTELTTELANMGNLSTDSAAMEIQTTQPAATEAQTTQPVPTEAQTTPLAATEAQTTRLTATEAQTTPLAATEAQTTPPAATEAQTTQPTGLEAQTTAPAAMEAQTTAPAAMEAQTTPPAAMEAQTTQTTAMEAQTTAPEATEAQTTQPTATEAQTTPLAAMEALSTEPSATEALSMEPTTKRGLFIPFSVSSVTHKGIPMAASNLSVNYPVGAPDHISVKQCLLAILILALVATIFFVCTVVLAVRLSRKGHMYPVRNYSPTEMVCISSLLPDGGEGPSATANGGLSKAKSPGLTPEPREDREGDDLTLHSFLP
The series can be described thus: Inhibition of recombinant PSGL-1 by surface plasmon resonance assay.

Series [15] can be described thus: Half life in C57B6 mouse liver microsomes. The format is ADME, Microsome.
Series [16] is described as follows: Oral bioavailability in cynomolgus monkey at 5 mg/kg. The format is ADME, organism-based, Macaca fascicularis. The settings on record: in vivo.
Series [17] is described as follows: Clearance in Sprague-Dawley rat at 3 mg/kg, iv and 10 mg/kg, po. The format is ADME, organism-based. The settings on record: in vivo.
The test system of series [18] is Cynomolgus monkey. The series can be described thus: Dose normalized AUC in cynomolgus monkey measured per mg of plasma at 5 mg/kg, iv and po. The format is ADME, organism-based, Macaca fascicularis. Set-up: dose 5 mg/kg, route oral. As to conditions: in vivo.
Series [19] has as its system Mus musculus. The series can be described thus: Dose normalized AUC in C57B6 mouse measured per mg of plasma at 2 mg/kg, iv and 10 mg/kg, po. The format is ADME, organism-based. As to conditions: in vivo.
Series [20] is described as follows: Aqueous solubility of the compound at pH 4.5. The format is physicochemical. The settings on record: aqueous solution.
A short description of series [21]: Aqueous solubility of the compound at pH 6.6. The format is physicochemical. The settings on record: aqueous solution.
The nature of series [22]: Aqueous solubility of the compound at pH 1. The format is physicochemical. As to conditions: aqueous solution.

The structures appear in SMILES notation. ≈ marks a conversion by molar mass, not a printed value. A value given as a limit tells only on which side of the number the result lay.

One may read the solubility as the dissolved amount per volume that the medium holds. One may read the bioavailability as the share of a dose that reaches the circulation, judged against a reference dose that is usually intravenous. By half-life is commonly meant the time in which the quantity being followed falls by half. Usually AUC stands for concentration integrated over time. For orientation: IC50 means the concentration needed to halve the response being measured.

As for `O=C(O)c1c(O)c(Cc2ccc(Cl)cc2)nc2c3c(ccc12)CCCC3` [PSI-697], the solubility in series [1] is 90 µg/mL (≈ 245 µM); in [7], 75 µg/mL (≈ 204 µM); in [20] it was below 1 µg/mL; in series [21], below 10 µg/mL; in series [22], below 1 µg/mL. Further, the clearance in series [2] turned out to be 11.6 mL/min/kg; in [6], 0.9 mL/min/kg; in [17] it was 11 mL/min/kg. In addition, the bioavailability in series [3] is 27%; in series [9], 58%; in [13], 100%; in series [16], 40%. Further, the half-life is 44 min in [4]; above 60 min in series [5]; above 60 min in series [10]; 2 min in [11]; 14 min in series [15]. The AUC is 11666 ng·h/mL in series [8], 440 ng·h/mL in series [12], 1202 ng·h/mL in series [18] and 1510 ng·h/mL in series [19]. The IC50 in series [14] is 150 µM.
